# In patent publication US20220354911A1, “TREATMENT OF TUMORS BY A COMBINATION OF AN ONCOLYTIC ADENOVIRUS, A CDK4/6 INHIBITOR AND A FURTHER THERAPEUTICALLY ACTIVE AGENT” (KLINIKUM RECHTS DER ISAR DER TECHNISCHEN UNIVERSITÄT MÜNCHEN, priority 2019, published 2022):
# pIC50: −log10 of the molar value.
# Experiments:
# SK-N-MC cells = assay: Cell cycle distribution (propidium iodine) of SK-N-MC cells; type: cell-based; details: 48 hours post treatment, MK-1775 at 500 nM
# Procedure: 48 hours post treatment cells were washed twice took place with PBS (containing RNase A, 100 U/ml). Cells were trypsinized and centrifuged at 1500 rpm, 4° C. for 5 min. Cells are fixed by adding slowly 1 ml of ice-cold 80% Ethanol drop by drop to the pellet and incubated overnight. Staining was performed by adding 1 ml of staining solution (Propidium Iodine, 50 μg/ml) to the cells and incubating 30-60 min at RT with gentle rocking. MK: MK-1775; LY: LY-2835219.
# T24 cells [1] = assay: Potency assay (SRB), XVir-N-31, Palbociclib and PARP inhibitor; type: cell-based; details: Homo sapiens, T-24, read-out: IC-80 value
# Procedure: 12,500 T24 cells were seeded per well in 12-well plates and grown over-night in RPMI Medium containing 10% FCS at 37° C. Inhibitor-treatment of cells occurred 24 h past cell seeding and again 1 hour after infection by adding indicated concentration to the medium. Infection of cells took place 24 h past inhibitor-treatment in 250 μl medium without serum. Fixation and SRB-staining took place at 4 days post infection. PD, Palbociclib; PARPi: BMN673.
# For SRB staining, the medium was removed by aspiration. Cells were fixed with 1 ml (per well) 10% cold TCA at 4° C. for 1 hour. TCA was removed by aspiration and cell layers were washed 4× with tap water. Cells were stained with 1 ml (per well) 0.5% SRB (sulforhodamine B) in 1% acetic acid for 30 min. Unbound SRB was removed in five washing steps with 1 ml 1% acetic acid/well; after each washing step, acetic acid was removed by aspiration. Plates were air-dried for 2 hrs. To solubilize the SRB stained cells, 200 μl of 10 mM Tris base was added to each well. […] The 96 well plate was loaded into an Elisa-plate reader and absorption of the samples was measured at 560 nm. […]
# In order to show the kinetics of a triple therapy of T24 cells using triple therapy comprising XVir-N-31, Palbociclib and a PARP inhibitor (BMN673 (Talazoparib)), a potency assay was carried out and the potency assessed at different points in time. […]
# UMUC-3 = assay: as above; type: cell-based; details: Homo sapiens; UMUC3 cells; read-out: IC-80 value
# Procedure: Seeding of UMUC-3: 3000 cells were seeded per well in 12-well plates and grown over-night in DMEM Medium containing 10% FCS at 37° C. Inhibitor-treatment of cell occurred 24 h past seeding and again 1 hour after infection by adding indicated concentration to the medium. Infection of cells took place 24 h past inhibitor-treatment. Fixation and SRB-staining took place at 1-6 days post infection (dpi: days post infection). 160 nM PARPi correspond to the IC-80 value in UMUC3 cells.
# T24 and UMUC-3 = assay: FACS cell cycle analysis, Talazoparib and Palbociclib; type: cell-based, human; details: T24 and UMUC-3, 48 hours
# Procedure: The influence of the applied small molecule inhibitors at their indicated concentrations on the cell cycle of bladder cancer cell lines T24 and UMUC-3 was analysed via flow cytometry analysis after DNA staining. 5×10^4 cells were seeded in 6-well plates and 24 hours later treated with appropriate inhibitors. Two days later, at approximately 80% confluency, cells were washed with PBS, trypsinized, washed again and fixated with icecold 80% ethanol. For cell cycle analysis, samples were incubated with the DNA-intercalating dye 7-aminoactinomycine D (7-AAD) and measured via FACS analysis. Evaluation of measured data was performed via the software FlowJo.
# dl703 = assay: E1A-independent viral DNA replication of dl703 (fiber qPCR); type: cell-based, Mastadenovirus, Type C, Serotype 5; details: UMUC cells, 1 μM CI-1040, 50 MOI dl703, 48 hours post infection
# Procedure: To investigate the differences in replication of dl703 (Mantwill et al. 2013, Journal of Translational Medicine, 11, 216) under different treatment conditions, DNA-replication analysis was performed. 100,000 UMUC cells were seeded in 6-well plates and grown in DMEM medium containing 10% FCS in 5% CO2 conditions at 37° C. 24 hours post seeding cells were treated for 24 hours with 10 μM Lee (Ribociclib), 1 μM CI-1040, 10 μM Nutlin-3a and 10 μM Roscovertine and again after infection adding an appropriate amount of inhibitors to the medium. Infection with 50 MOI dl703 (Mastadenovirus, Type C, Serotype 5 with a 3.2 kb sized deletion in E1 region) took place 24 hours post treatment. After 4 and 48 hours post infection DNA were isolated and qPCR was performed using specific primers for the viral fiber gene. Fiber fwd. 5′-[…]-3′ (SEQ ID NO: 17); Fiber rev. 5′-[…]-3′ (SEQ ID NO: 18).
# Rb, phRB and E2F1 = assay: Western blot of UMUC cells treated with cell cycle inhibitors; type: cell-based, human; details: 24 hours post-treatment, LEE-011 at 10 μM, MI-1040 at 1 μM
# Procedure: Western Blot analysis of UMUC cells treated with indicated concentrations of CI-1040, Roscovitine, Nutlin-3a and LEE011 (Ribociclib). 1×10^6 cells were seeded in 10 cm dishes. 24 hours post-treatment proteins were isolated using 1% SDS buffer, to achieve the disruption of the nuclear membrane. All samples were drawn up several times into a syringe to disrupt the DNA and subsequently centrifuged at 30000 rpm at 4° C. for 30 minutes. The supernatant was transferred to a new reaction tube and directly used for further steps or stored at −80° C. To separate the proteins a sodium dodecyl sulfate polyacrylamide gel electrophoresis was performed. By means of electrophoresis for approximately two hours at 100V at 4° C., 40 μg of total proteins were loaded and probed against specific indicated antibodies.
# UMUC3 cells = assay: Cell cycle analysis (flow cytometry) of UMUC3 cells; type: cell-based, human; details: UMUC3, 48 hours; Roscovitine 10 μM, CI-1040 1 μM, Nutlin-3a 10 μM, LEE011 10 μM; 10 MOI dl703
# Procedure: FIG. 10 is a bar diagram showing cell cycle distribution in UMUC3 cells, measured 48 hours post treatment, whereby the concentrations of the […] inhibitors was as follows: Roscovitine: 10 μM, CI-1040: 1 μM, Nutlin-3a: 10 μM, and LEE011: 10 μM.
# For cell cycle analysis cells were seeded in 6 well plates (2.5×10E4 c/well). 8 hours before infection with dl703, cells were treated with indicated concentration of cell cycle inhibitors. After infection with 10 MOI dl703 cells were again treated for 48 hours. Untreated cells and dl703 infected cells only, served as control. 48h post infection cells were harvest by trypsinization and fixed with 80% ethanol while vortexing. To investigate the cell cycle status, fixed cells were centrifuged 5 min at RT and 300 g and ethanol was aspirated. Cells were resuspended and washed with 1% BSA-PBS (Bovine Serum Albumin) and again centrifuged. Cells were stained with EDU and cell cycle analysis were performed using the Click-iT™ Plus EdU Flow Cytometry Assay Kits, Catalog nos. C10632 from Thermo Fischer. In addition, after 3× times washing with 1% BSA/PBS cells were stained with PI (Propidium Iodine, 50 μg/ml). Measurement was directly performed after staining with a FACScalibur Flow Cytometry System. Data was analyzed with FlowJo software.
# 253J = assay: IC50 concentration of PD-0332991; type: cell-based; details: Homo sapiens
# Procedure: (§1) The class of CDK4/6 inhibitors as subject to Example 5 requires expression of RB. Therefor, three RB positive and two RB negative bladder cancer derived cell lines were used and the cells treated with the combination therapy. Cell lines were pretreated for 24 hours with an IC50 concentration of PD-0332991 (T24: 500 nM, RT112: 2000 nM, 253J: 100 nM) and infected with XVir-N-31 (T24 MOI50, 253J MOI 25, RT112 MOI450). Values are the average of at least 2 independent experiments. Error bars show the standard error. Four dpi, cell viability was measured using SRB assays (a, c). (b, d) Lysates of cells were prepared 3 dpi and a titer test was performed on Hek293 cells. Viral titer is shown as fold change relative to control
# RT112 = assay: IC50 concentration of PD-0332991; type: cell-based; details: Homo sapiens, RT-112
# Procedure: as §1
# T24 = assay: IC50 concentration of PD-0332991; type: cell-based; details: Homo sapiens, T-24
# Procedure: as §1
# XVir-N-31 = XVir-N-31 fiber DNA qPCR with BET inhibitors and BET degraders; type: cell-based, Mastadenovirus, Type C, Serotype 5; details: UMUC-3 (MOI 10) and RT112 (MOI 50), 24 hours post infection
# Procedure: 3×10^4 UMUC-3 cells and 4×10^4 RT112 cells were seeded in 12 well plates in DMEM and RPMI medium. The following day the cells were pretreated with BETi and BETd. 48 hours post seeding the cells were infected with 10 MOI for UMUC-3 and 50 MOI for RT112 and treated with the indicated concentration of BETi and BETd. After each timepoint (4, 24 hour) the cells were washed once with PBS and 200 μl of SDS DNA Lysis Buffer was added. The cells were incubated with Proteinase K before undergoing a Phenol-Chloroform-Isoamylalcohol purification. The DNA was diluted in DNase free water and the concentration of the DNA was determined using a Nanodrop. For each sample a solution of 15 ng/μl was prepared and a RT-qPCR using 75 ng of DNA and a GoTaq Master mix. Specific Fiber forward and reverse primers were used and for the calculation of the Δ ct value specific Actin primers were used as well. For each sample 3 Fiber and 3 Actin values were measured. The calculation was done in excel and each 24 hours was calculated based on its 4 hours value (initial viral entry, before replication).
# T24 cells [2] = assay: Potency assay/SRB staining, XVir-N-31, Nutlin-3a and Palbociclib; type: cell-based, human; details: T24, 30 μM Nutlin-3a, 500 nM Palbociclib, four dpi
# Procedure: (§2) Cell killing using XVir-N-31 alone and in combination with small molecule inhibitors was analysed in 12-well plates. […] At 1 hpi, complete medium with Palbociclib was added to the cells pretreated with Palbociclib. To the control as well as to the Nutlin treated cell complete medium without inhibitors was added.
# A potency assay using T24 cells was carried out for determining the cell killing effect of XVir-N-31 alone, XVir-N-31 with Nutlin-3a, XVir-N-31 with Palbociclib, and XVir-N-31 with both Nutlin-3a and Palbociclib.
# T24shRB cells = assay: as above; type: cell-based, human; details: 30 μM Nutlin-3a, 500 nM Palbociclib, four dpi
# Procedure: as §2
# The same potency assay as subject to Example 27.2 was carried out using T24shRB cells. T24shRB cells are T24 cells without Rb expression. Such lacking Rb expression was generated by means of lentiviral transfection, wherein the lentivirus coded for shRNA directed to Rb. The lentivirus vector used was pLKO-RB1-shRNA19 (obtained from Addgene, Watertown, Mass. 02472, USA), the sequence of the shRNA was as follows […] (SEQ ID NO: 39). The procedure is also described by Michaud K et al. (Cancer Res. 2010 Apr. 15. 70(8):3228-38).
smiles,measurement,setting,value
CCN1CCN(Cc2ccc(Nc3ncc(F)c(-c4cc(F)c5nc(C)n(C(C)C)c5c4)n3)nc2)CC1 [Abemaciclib],cell cycle,SK-N-MC cells,no effect
Cn1ncnc1[C@H]1c2n[nH]c(=O)c3cc(F)cc(c23)N[C@@H]1c1ccc(F)cc1 [PARPi],IC80,T24 cells [1],15 nM
same,IC80,UMUC-3,160 nM
same,G1 arrest on addition of Talazoparib,T24 and UMUC-3,not influenced
O=C(NOCC1CC1)c1ccc(F)c(F)c1Nc1ccc(I)cc1Cl [CI-1040],viral DNA replication of dl703,dl703,much lower compared to Ribociclib treated cells
same,"Rb, phRB and E2F1 expression","Rb, phRB and E2F1",induced inhibition
same,cell cycle distribution,UMUC3 cells,clear G1-arrest
CC[C@H](CO)Nc1nc(NCc2ccccc2)c2ncn(C(C)C)c2n1 [Roscovitine],"Rb, phRB and E2F1 expression","Rb, phRB and E2F1",no pronounced effect
same,cell cycle distribution,UMUC3 cells,slight increase of G2/m arrested cells
CC(=O)c1c(C)c2cnc(Nc3ccc(N4CCNCC4)cn3)nc2n(C2CCCC2)c1=O [Palbociclib],pIC50,253J,7.00
same,pIC50,RT112,5.70
same,pIC50,T24,6.30
COc1nnc2ccc(N3CCC(c4ccc(OCCN5CCN(C)C(=O)[C@H]5C)cc4)CC3)nn12 [AZD5153],replication of XVir-N-31,XVir-N-31,highest
COc1ccc(C2=N[C@@H](c3ccc(Cl)cc3)[C@@H](c3ccc(Cl)cc3)N2C(=O)N2CCNC(=O)C2)c(OC(C)C)c1 [Nutlin-3a],"Rb, phRB and E2F1 expression","Rb, phRB and E2F1",no pronounced effect
same,cell cycle distribution,UMUC3 cells,only little or no effect on the cell cycle
same,cell killing by XVir-N-31,T24 cells [2],enhanced cell killing
same,killing of Rb-negative cells by XVir-N-31,T24shRB cells,not effective
C=CCn1c(=O)c2cnc(Nc3ccc(N4CCN(C)CC4)cc3)nc2n1-c1cccc(C(C)(C)O)n1 [MK-1775],cell cycle,SK-N-MC cells,increase of cells in G2/M
